Results from patent US20250236608A1, “EGFR INHIBITORS” (Blueprint Medicines Corporation, priority 2022, published 2025).
pIC50: −log10 of the molar value.

Key:
EGFR L858R = EGFR L858R (Homo sapiens (Human), UniProt P00533, L858R); test: Biochemical EGFR inhibition assay, EGFR L858R; settings: Caliper mobility shift; 1.0 mM ATP or ATP Km; read-out: Enz EGFR_L858R IC50
EGFR (d746-750) = EGFR (d746-750) (Homo sapiens (Human), UniProt P00533, DEL746-750); test: Biochemical EGFR inhibition assay, EGFR (d746-750); settings: Caliper mobility shift; 1.0 mM ATP or ATP Km; read-out: Enz EGFR_Exon19-del746-750 IC50
Sequence of EGFR (d746-750) (P00533 other isoform, or with tags, fused parts or gaps del 1-694/del 746-750 limits assumed): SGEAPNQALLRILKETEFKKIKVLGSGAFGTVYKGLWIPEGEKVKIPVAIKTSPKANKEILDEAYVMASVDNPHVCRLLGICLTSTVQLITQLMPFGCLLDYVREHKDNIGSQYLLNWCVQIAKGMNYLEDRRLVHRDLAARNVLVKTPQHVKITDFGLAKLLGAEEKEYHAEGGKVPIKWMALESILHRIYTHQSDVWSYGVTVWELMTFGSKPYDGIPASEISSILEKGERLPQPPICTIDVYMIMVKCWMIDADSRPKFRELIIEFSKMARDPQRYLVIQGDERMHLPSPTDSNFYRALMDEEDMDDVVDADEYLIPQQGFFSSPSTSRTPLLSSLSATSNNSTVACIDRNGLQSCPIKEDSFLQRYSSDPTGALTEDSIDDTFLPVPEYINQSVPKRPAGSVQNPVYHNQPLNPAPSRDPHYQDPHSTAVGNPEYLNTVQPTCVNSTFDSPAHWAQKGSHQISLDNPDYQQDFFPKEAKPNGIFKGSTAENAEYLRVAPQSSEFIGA

[1] = biological target: pEGFR (Tyr1068) in PC-9 cells (Ex19Del) (Homo sapiens (Human), UniProt P00533, DEL746-750); test: PC-9 pEGFR AlphaLISA assay; type: cell-based; settings: 4 hours incubation, p-EGFR (Tyr1068) AlphaLISA, read-out: Ext pEGFR_PC-9 Ex19Del IC50
Sequence of pEGFR (Tyr1068) in PC-9 cells (Ex19Del) (P00533 other isoform, or with tags, fused parts or gaps del 746-750): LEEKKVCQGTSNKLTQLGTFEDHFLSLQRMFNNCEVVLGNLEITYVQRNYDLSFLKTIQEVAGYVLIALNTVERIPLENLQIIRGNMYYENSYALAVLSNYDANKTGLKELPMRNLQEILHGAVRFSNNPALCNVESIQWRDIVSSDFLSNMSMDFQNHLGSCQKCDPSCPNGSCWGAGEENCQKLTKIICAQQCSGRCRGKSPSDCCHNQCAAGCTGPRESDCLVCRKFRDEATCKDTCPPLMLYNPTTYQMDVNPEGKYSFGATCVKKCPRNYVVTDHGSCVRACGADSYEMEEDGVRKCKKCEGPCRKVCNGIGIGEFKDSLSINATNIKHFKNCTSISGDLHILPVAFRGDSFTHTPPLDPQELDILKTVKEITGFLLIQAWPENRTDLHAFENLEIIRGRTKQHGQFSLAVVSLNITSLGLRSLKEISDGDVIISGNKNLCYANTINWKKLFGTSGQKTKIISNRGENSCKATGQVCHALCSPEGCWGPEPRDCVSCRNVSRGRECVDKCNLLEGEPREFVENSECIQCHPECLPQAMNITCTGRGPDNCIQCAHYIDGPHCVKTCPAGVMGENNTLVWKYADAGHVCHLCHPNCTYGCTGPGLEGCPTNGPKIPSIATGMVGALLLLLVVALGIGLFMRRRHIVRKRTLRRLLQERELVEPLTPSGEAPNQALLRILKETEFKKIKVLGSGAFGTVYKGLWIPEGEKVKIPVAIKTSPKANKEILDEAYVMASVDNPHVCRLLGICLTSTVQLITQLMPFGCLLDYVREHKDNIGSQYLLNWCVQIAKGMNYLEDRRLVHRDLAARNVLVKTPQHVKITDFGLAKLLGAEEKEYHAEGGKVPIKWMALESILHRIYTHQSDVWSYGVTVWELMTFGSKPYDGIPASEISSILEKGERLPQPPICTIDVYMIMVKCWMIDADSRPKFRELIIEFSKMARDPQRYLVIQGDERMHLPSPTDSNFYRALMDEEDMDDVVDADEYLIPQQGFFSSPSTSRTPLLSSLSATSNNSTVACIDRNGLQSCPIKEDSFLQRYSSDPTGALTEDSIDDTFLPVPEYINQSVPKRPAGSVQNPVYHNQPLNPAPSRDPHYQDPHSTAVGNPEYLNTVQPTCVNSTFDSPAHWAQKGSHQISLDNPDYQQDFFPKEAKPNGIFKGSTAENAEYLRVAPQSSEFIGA
In short: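 Compounds are added in ten 4-fold dilutions to adherent cells grown in serum-containing (10% FBS) phenol-free DMEM and left for 4 hours at 37° C. Phosphorylated receptor in lysates is quantified by bead-based AlphaLISA. IC50 values derive from inhibition plotted against log dose.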

Sequence of EGFR L858R (P00533 25-1210 L858R): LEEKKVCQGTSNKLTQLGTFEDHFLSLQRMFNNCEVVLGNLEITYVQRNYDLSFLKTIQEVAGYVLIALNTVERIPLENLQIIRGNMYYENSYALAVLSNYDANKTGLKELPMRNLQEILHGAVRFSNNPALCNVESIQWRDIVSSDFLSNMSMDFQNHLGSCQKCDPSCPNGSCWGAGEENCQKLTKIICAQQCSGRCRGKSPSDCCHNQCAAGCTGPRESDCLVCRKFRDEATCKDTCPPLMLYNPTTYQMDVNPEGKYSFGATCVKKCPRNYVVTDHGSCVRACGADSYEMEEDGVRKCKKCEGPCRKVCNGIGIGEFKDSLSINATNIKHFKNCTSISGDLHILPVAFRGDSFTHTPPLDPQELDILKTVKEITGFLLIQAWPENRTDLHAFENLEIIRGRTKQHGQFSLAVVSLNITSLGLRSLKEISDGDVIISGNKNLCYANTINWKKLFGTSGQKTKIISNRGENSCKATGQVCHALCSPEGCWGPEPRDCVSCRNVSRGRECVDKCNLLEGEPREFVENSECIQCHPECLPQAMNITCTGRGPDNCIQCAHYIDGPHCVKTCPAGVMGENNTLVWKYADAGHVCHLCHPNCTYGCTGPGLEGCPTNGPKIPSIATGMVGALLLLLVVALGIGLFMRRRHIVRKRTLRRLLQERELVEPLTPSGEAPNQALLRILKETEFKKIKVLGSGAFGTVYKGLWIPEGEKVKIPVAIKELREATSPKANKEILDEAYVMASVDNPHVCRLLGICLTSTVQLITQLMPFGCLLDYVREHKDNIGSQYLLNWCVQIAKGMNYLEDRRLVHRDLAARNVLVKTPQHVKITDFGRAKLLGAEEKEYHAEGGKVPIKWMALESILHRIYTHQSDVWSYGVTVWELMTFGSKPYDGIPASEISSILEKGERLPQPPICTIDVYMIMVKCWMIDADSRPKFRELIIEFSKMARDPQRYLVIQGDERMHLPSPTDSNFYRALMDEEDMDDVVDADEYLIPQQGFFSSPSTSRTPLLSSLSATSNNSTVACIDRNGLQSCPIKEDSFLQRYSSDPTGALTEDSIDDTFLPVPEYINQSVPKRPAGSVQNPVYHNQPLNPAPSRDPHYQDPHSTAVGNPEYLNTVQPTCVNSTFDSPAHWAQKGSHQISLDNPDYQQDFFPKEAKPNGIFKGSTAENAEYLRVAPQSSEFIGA

Row | Structure (SMILES) | pIC50 (EGFR L858R) | pIC50 (EGFR (d746-750)) | pIC50 [1]
1 | COc1cc2ncnc(-c3cn(C)nc3-c3ccccc3)c2cc1NC(=O)c1cncc(C)c1 [Example 321, N-(7-methoxy-4-(1-methyl-3-phenyl-1H-pyrazol-4-yl)quinazolin-6-yl)-5-methylnicotinamide] | 8.28 | 8.57 | 8.28
2 | Cc1c(-c2ncnc3cc(-c4cnn(C)c4)ccc23)c(-c2ccccc2)nn1C [Example 480, 4-(1,5-dimethyl-3-phenyl-1H-pyrazol-4-yl)-7-(1-methyl-1H-pyrazol-4-yl)quinazoline] | 8.25 | 8.36 | 7.16
3 | COc1cc2ncnc(-c3cn(C)nc3-c3ccccc3)c2cc1NC(=O)C(C)(C)F [Example 350, 2-fluoro-N-(7-methoxy-4-(1-methyl-3-phenyl-1H-pyrazol-4-yl)quinazolin-6-yl)-2-methylpropanamide] | 8.51 | 8.82 | 8.36
4 | COc1cc2ncnc(-c3cn(C)nc3-c3ccccc3)c2nc1O[C@@H](C)c1cccnc1F [Example 47, (S)-6-(1-(2-fluoropyridin-3-yl)ethoxy)-7-methoxy-4-(1-methyl-3-phenyl-1H-pyrazol-4-yl)pyrido[3,2-d]pyrimidine] | 8.59 | 8.85 | 8.68
5 | CCOc1cc2ncnc(-c3cn(C)nc3-c3ccccc3)c2cc1N1CCN(C)C[C@@H]1C [Example 174, (S)-6-(2,4-dimethylpiperazin-1-yl)-7-ethoxy-4-(1-methyl-3-phenyl-1H-pyrazol-4-yl)quinazoline] | 8.55 | 8.64 | 8.47
6 | COc1cc2ncnc(-c3cn(C)nc3-c3ccccc3)c2cc1OC(=O)N1CCOCC1(C)C [Example 81, 7-methoxy-4-(1-methyl-3-phenyl-1H-pyrazol-4-yl)quinazolin-6-yl 3,3-dimethylmorpholine-4-carboxylate] | 8.21 | 8.66 | 8.28
7 | COc1cc2ncnc(-c3cn(C)nc3-c3ccccc3)c2cc1NC(=O)c1cnc(C)c(F)c1 [Example 196, 5-fluoro-N-(7-methoxy-4-(1-methyl-3-phenyl-1H-pyrazol-4-yl)quinazolin-6-yl)-6-methylnicotinamide] | 8.77 | 9.05 | 8.82
8 | COc1cc2ncnc(-c3cn(C)nc3-c3ccccc3)c2cc1NC(=O)c1cnn(C(F)(F)F)c1C [Example 234, N-(7-methoxy-4-(1-methyl-3-phenyl-1H-pyrazol-4-yl)quinazolin-6-yl)-5-methyl-1-(trifluoromethyl)-1H-pyrazole-4-carboxamide] | 8.72 | 8.96 | 8.55
9 | COc1cc2ncnc(-c3cn(C)nc3-c3ccccc3)c2cc1C(C)O (stereo not drawn) [Example 100, 1-(7-methoxy-4-(1-methyl-3-phenyl-1H-pyrazol-4-yl)quinazolin-6-yl)ethan-1-ol] | 8.54 | 8.70 | 8.12

Next, values leading:

Row | pIC50 (EGFR L858R) | pIC50 (EGFR (d746-750)) | pIC50 [1] | Structure (SMILES)
10 | 8.74 | 9.00 | 9.10 | COc1cc2ncnc(-c3cn(C)nc3-c3ccccc3)c2nc1NC(=O)[C@]12CN(C)C[C@H]1C2(F)F (single isomer, unassigned) [Example 416, (1R,5S)-6,6-difluoro-N-(7-methoxy-4-(1-methyl-3-phenyl-1H-pyrazol-4-yl)pyrido[3,2-d]pyrimidin-6-yl)-3-methyl-3-azabicyclo[3.1.0]hexane-1-carboxamide or (1S,5R)-6,6-difluoro-N-(7-methoxy-4-(1-methyl-3-phenyl-1H-pyrazol-4-yl)pyrido[3,2-d]pyrimidin-6-yl)-3-methyl-3-azabicyclo[3.1.0]hexane-1-carboxamide]
11 | 8.42 | 9.05 | 8.38 | COc1cc2ncnc(-c3cn(C)nc3-c3ccccc3)c2cc1NC(=O)[C@]1(C)CCCO1 (single isomer, unassigned) [Example 258, (S)—N-(7-methoxy-4-(1-methyl-3-phenyl-1H-pyrazol-4-yl)quinazolin-6-yl)-2-methyltetrahydrofuran-2-carboxamide or (R)—N-(7-methoxy-4-(1-methyl-3-phenyl-1H-pyrazol-4-yl)quinazolin-6-yl)-2-methyltetrahydrofuran-2-carboxamide]
12 | 9.10 | 9.40 | 8.89 | CCc1nc2c(-c3cn(C)nc3-c3ccccc3)ncnc2cc1OC [Example 136, 6-ethyl-7-methoxy-4-(1-methyl-3-phenyl-1H-pyrazol-4-yl)pyrido[3,2-d]pyrimidine]
13 | 8.37 | 8.72 | 8.31 | COc1cc2ncnc(-c3cn(C)nc3-c3ccccc3)c2cc1O[C@H]1CCN(C)C[C@@H]1F [Example 2, 6-(((3S,4S)-3-fluoro-1-methylpiperidin-4-yl)oxy)-7-methoxy-4-(1-methyl-3-phenyl-1H-pyrazol-4-yl)quinazoline]
14 | 8.70 | 9.15 | 8.68 | COc1cc2ncnc(-c3cn(C)nc3-c3ccccc3)c2nc1NC(=O)c1cnn(C(F)(F)F)c1C [Example 427, N-(7-methoxy-4-(1-methyl-3-phenyl-1H-pyrazol-4-yl)pyrido[3,2-d]pyrimidin-6-yl)-5-methyl-1-(trifluoromethyl)-1H-pyrazole-4-carboxamide]
15 | 8.17 | 8.66 | 7.93 | COc1cc2ncnc(-c3cn(C)nc3-c3ccccc3)c2cc1N1CC[C@H](F)[C@@H](O)C1 (single isomer, unassigned) [Example 172, (3S,4S)-4-fluoro-1-(7-methoxy-4-(1-methyl-3-phenyl-1H-pyrazol-4-yl)quinazolin-6-yl) piperidin-3-ol or (3R,4R)-4-fluoro-1-(7-methoxy-4-(1-methyl-3-phenyl-1H-pyrazol-4-yl)quinazolin-6-yl) piperidin-3-ol]
16 | 8.68 | 9.15 | 8.85 | COc1cc2ncnc(-c3cn(C4CC4)nc3-c3ccccc3)c2nc1NC(=O)[C@]12C[C@H]1CN(C)C2 (single isomer, unassigned) [Example 407, (1R,5R)—N-(4-(1-cyclopropyl-3-phenyl-1H-pyrazol-4-yl)-7-methoxypyrido[3,2-d]pyrimidin-6-yl)-3-methyl-3-azabicyclo[3.1.0]hexane-1-carboxamide or (1S,5S)—N-(4-(1-cyclopropyl-3-phenyl-1H-pyrazol-4-yl)-7-methoxypyrido[3,2-d]pyrimidin-6-yl)-3-methyl-3-azabicyclo[3.1.0]hexane-1-carboxamide]
17 | 8.89 | 9.05 | 8.82 | CCOc1cc2ncnc(-c3cn(C)nc3-c3ccccc3)c2cc1NC(=O)[C@@]12COC[C@@H]1C2 [Example 290, (1R,5R)—N-(7-ethoxy-4-(1-methyl-3-phenyl-1H-pyrazol-4-yl)quinazolin-6-yl)-3-oxabicyclo[3.1.0]hexane-1-carboxamide]
18 | 8.34 | 8.68 | 8.28 | COc1cc2ncnc(-c3cn(C)nc3-c3ccccc3)c2c(F)c1NC(=O)C1CCC1 [Example 295, N-(5-fluoro-7-methoxy-4-(1-methyl-3-phenyl-1H-pyrazol-4-yl)quinazolin-6-yl)cyclobutanecarboxamide]
19 | 8.72 | 8.96 | 8.92 | COc1cc2ncnc(-c3cn(C)nc3-c3ccccc3F)c2nc1NC(=O)C1CC1 [Example 356, N-(4-(3-(2-fluorophenyl)-1-methyl-1H-pyrazol-4-yl)-7-methoxypyrido[3,2-d]pyrimidin-6-yl)cyclopropanecarboxamide]
